Assay [1] relates to CD8-MerTK in Ba/F3-CDM cells. The assay can be described thus: In cell MER kinase assay, Ba/F3-CDM cell proliferation without IL-3 (Celltiter-Glo). In kind it is cell-based, murine. Conditions: 48 hours compound treatment, read-out: Cell growth inhibition (GI50). As for the experimental part: To establish an in cell kinase assay for MerTK kinase, the IL-3 dependent Ba/F3 cells of murine lymphoid origin was transfected with CD8-MerTK. […] For a routine cellular assay, Ba/F3-CDM cells were seeded at 2,000 cells per well in 384-well cell culture plate containing DMEM/10% FBS culture media and incubated for 24 hours before addition of compounds pre-diluted in culture media. Following compound treatment, cells were further incubated for 48 hours and the proliferation was measured. To discriminate a Ba/F3 growth inhibition by a specific inhibition of MerTK kinase following compound treatment vs growth inhibition due to a non-specific unintended cytotoxicity of compounds, we routinely carried out control sets of Ba/F3 cells in parallel that grown in IL3-supplemented growth media. In the presence of IL-3, the proliferation of Ba/F3 is no longer dependent on the MerTK activity. Cell growth and proliferation was measured with Celltiter-Glo™ system (Promega, USA) according to the manufacturer's instruction. The half-maximal growth inhibitory concentration (GI50) value was calculated with Prism6.0 software (GraphPad, USA).
Background: ATP-based viability assays read luminescence as a measure of living cells.

In assay [2] the target is human c-MER catalytic domain (Homo sapiens (Human), UniProt Q12866). Kind of assay: LanthaScreen TR-FRET kinase assay, c-MER. As to conditions: read-out: Mer TK inhibition (IC50); Biochemical IC50, TR-FRET, 10 uM ATP. On the technique in general: In TR-FRET formats the signal depends on donor and acceptor labels being close together.

One may read the GI50 as the concentration that inhibits growth by half. In general, IC50 refers to the point on the concentration scale where inhibition reaches its midpoint.

Sequence of human c-MER catalytic domain (Q12866 587-858): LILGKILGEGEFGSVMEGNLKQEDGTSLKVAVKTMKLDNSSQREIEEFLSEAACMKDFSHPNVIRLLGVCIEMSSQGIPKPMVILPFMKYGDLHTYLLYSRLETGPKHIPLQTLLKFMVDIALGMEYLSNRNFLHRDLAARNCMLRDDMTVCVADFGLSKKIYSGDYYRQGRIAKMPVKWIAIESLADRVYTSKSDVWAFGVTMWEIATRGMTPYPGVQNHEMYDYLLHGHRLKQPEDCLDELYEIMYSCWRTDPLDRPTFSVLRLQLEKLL

As for `CC1CN[C@@H](C)CN1Cc1ccc(-c2ccc(CO[C@H]3CCC[C@@H]3NC(=O)c3cc(-c4cnn(C)c4)cnc3N)cc2)cc1` (stereo partly drawn) [Example 191, 2-amino-N-((1S,2S)-2-((4′-((trans-2,5-dimethylpiperazin-1-yl)methyl)-[1,1′-biphenyl]-4-yl)methoxy)cyclopentyl)-5-(1-methyl-1H-pyrazol-4-yl)nicotinamide], in assay [1], the GI50 was 100 to 500 nM. Moreover, the half-inhibitory concentration (IC50) in assay [2] is under 10 nM.

Take `CCc1cc(CO[C@H]2CNC[C@@H]2NC(=O)c2cc(-c3ccc(C(=O)NC4CCN(C)CC4)cc3)cnc2N)ccc1C` [Example 419, 2-amino-N-((3S,4S)-4-((3-ethyl-4-methylbenzyl)oxy)pyrrolidin-3-yl)-5-(4-((1-methylpiperidin-4-yl)carbamoyl)phenyl)nicotinamide]: the 50% growth inhibitory concentration (GI50) in assay [1] was over 1000 nM. The concentration for half-maximal inhibition (IC50) in assay [2] is under 10 nM.

Regarding `CN1CCN(Cc2ccc(-c3ccc(CO[C@H]4CCC[C@@H]4NC(=O)c4cc(-c5cnn(C)c5)cnc4N)cc3Cl)cc2)CC1` [Example 159, 2-amino-N-((1S,2S)-2-((2-chloro-4′-((4-methylpiperazin-1-yl)-methyl)-[1,1′-biphenyl]-4-yl)methoxy)cyclopentyl)-5-(1-methyl-1H-pyrazol-4-yl)-nicotinamide], the GI50 in assay [1] is 100 to 500 nM. In assay [2], the IC50 is under 10 nM.

Consider `Cn1cc(-c2cnc(N)c(C(=O)N[C@H]3CCC[C@@H]3OCc3ccc(-c4ccc(CCN)cc4)cc3)c2)cn1` [Example 145, 2-amino-N-((1S,2S)-2-((4′-(2-aminoethyl)-[1,1′-biphenyl]-4-yl)methoxy)cyclopentyl)-5-(1-methyl-1H-pyrazol-4-yl)nicotinamide], for which the GI50 in assay [1] is over 1000 nM. Moreover, the concentration for half-maximal inhibition (IC50) in assay [2] is under 10 nM.

Regarding `Cc1cccc(-c2cnc(N)c(C(=O)N[C@H]3CCC[C@@H]3OCc3ccc(-c4ccc(CN5CCN(C)CC5)cc4)cc3)c2)c1` [Example 370, 2-amino-N-((1S,2S)-2-((4′-((4-methylpiperazin-1-yl)methyl)-[1,1′-biphenyl]-4-yl)methoxy)cyclopentyl)-5-(m-tolyl)nicotinamide], the GI50 in assay [1] is under 100 nM. Also, in assay [2], the IC50 is under 10 nM.

As for `CC(c1ccc(-c2ccc(CO[C@H]3CCC[C@@H]3NC(=O)c3cc(-c4cncc(F)c4)cnc3N)cc2)cc1)N1CCN(C)CC1` (stereo partly drawn) [Example 230, 6-amino-5′-fluoro-N-((1S,2S)-2-((4′-(1-(4-methylpiperazin-1-yl)ethyl)-[1,1′-biphenyl]-4-yl)methoxy)cyclopentyl)-[3,3′-bipyridine]-5-carboxamide], in assay [1], the GI50 was under 100 nM. Further, the IC50 in assay [2] is under 10 nM.

For `C[C@@H]1CN(C)CCN1Cc1ccc(-c2ccc(CO[C@H]3CCC[C@@H]3NC(=O)c3cc(-c4cnn(C)c4)cnc3N)cc2)cc1` [Example 187, 2-amino-N-((1S,2S)-2-((4′-(((R)-2,4-dimethylpiperazin-1-yl)-methyl)-[1,1′-biphenyl]-4-yl)methoxy)cyclopentyl)-5-(1-methyl-1H-pyrazol-4-yl)-nicotinamide], the GI50 in assay [1] is under 100 nM. In addition, the IC50 in assay [2] was under 10 nM.

In the case of `CC(c1c(F)cc(-c2ccc(CO[C@H]3CCC[C@@H]3NC(=O)c3cc(-c4cnn(C)c4)cnc3N)cc2)cc1F)N1CCN(CCO)CC1` (stereo partly drawn) [Example 212, 2-amino-N-((1S,2S)-2-((3′,5′-difluoro-4′-(1-(4-(2-hydroxyethyl)-piperazin-1-yl)ethyl)-[1,1′-biphenyl]-4-yl)methoxy)cyclopentyl)-5-(1-methyl-1H-pyrazol-4-yl)nicotinamide], the GI50 in assay [1] was over 1000 nM. Moreover, the IC50 in assay [2] was under 10 nM.

With `CN1CCN(Cc2ccc(-c3ccc(CO[C@H]4CCC[C@@H]4NC(=O)c4cc(-c5ccc(N6CCOCC6)cc5)cnc4N)cc3)cc2)CC1` [Example 381, 2-amino-N-((1S,2S)-2-((4′-((4-methylpiperazin-1-yl)methyl)-[1,1′-biphenyl]-4-yl)methoxy)cyclopentyl)-5-(4-morpholinophenyl)nicotinamide], in assay [1], the GI50 was under 100 nM. In assay [2], the IC50 is under 10 nM.

On to `Cn1cc(-c2cnc(N)c(C(=O)N[C@H]3CCC[C@@H]3OCc3ccc(-c4ccc(CO)cc4)cc3)c2)cn1` [Example 142, 2-amino-N-((1S,2S)-2-((4′-(hydroxymethyl)-[1,1′-biphenyl]-4-yl)methoxy)cyclopentyl)-5-(1-methyl-1H-pyrazol-4-yl)nicotinamide], for which, in assay [1], the GI50 was 100 to 500 nM. The 50% inhibitory concentration (IC50) in assay [2] was under 10 nM.

Take `CN1CCN(Cc2ccc(-c3ccc(CO[C@H]4CCC[C@@H]4NC(=O)c4cc(-c5ccncc5)cnc4N)cc3)cc2)CC1` [Example 377, 6-amino-N-((1S,2S)-2-((4′-((4-methylpiperazin-1-yl)methyl)-[1,1′-biphenyl]-4-yl)methoxy)cyclopentyl)-[3,4′-bipyridine]-5-carboxamide]: the GI50 in assay [1] is under 100 nM. Further, the IC50 in assay [2] is under 10 nM.

As to `CCc1cc(CO[C@H]2CNC[C@@H]2NC(=O)c2cc(-c3cnn(C4CCNCC4)c3)cnc2N)ccc1C` [Example 412, 2-amino-N-((3S,4S)-4-((3-ethyl-4-methylbenzyl)oxy)pyrrolidin-3-yl)-5-(1-(piperidin-4-yl)-1H-pyrazol-4-yl)nicotinamide], in assay [1], the 50% growth inhibitory concentration (GI50) was over 1000 nM. Further, the half-inhibitory concentration (IC50) in assay [2] was under 10 nM.

On to `CN1CCN(Cc2ccc(-c3ccc(CO[C@H]4CCC[C@@H]4NC(=O)c4cc(-c5ccc(CN6CCN(C)CC6)cc5)cnc4N)cc3)cc2)CC1` [Example 368], for which, in assay [1], the 50% growth inhibitory concentration (GI50) was under 100 nM. In addition, the IC50 in assay [2] is under 10 nM.

On to `Cn1cc(-c2cnc(N)c(C(=O)N[C@H]3CCC[C@@H]3OCc3ccc(-c4ccc(CC5CCN(CC(N)=O)CC5)cc4)cc3)c2)cn1` [Example 242, 2-amino-N-((1S,2S)-2-((4′-((1-(2-amino-2-oxoethyl)piperidin-4-yl)methyl)-[1,1′-biphenyl]-4-yl)methoxy)cyclopentyl)-5-(1-methyl-1H-pyrazol-4-yl)-nicotinamide], for which, in assay [1], the GI50 is under 100 nM. In assay [2], the IC50 is under 10 nM.

As to `CN1CCN(Cc2ccc(-c3ccc(CO[C@H]4CN(C)C[C@@H]4NC(=O)c4cc(-c5cnn(C)c5)cnc4N)cc3)cc2)CC1` [Example 435, 2-amino-5-(1-methyl-1H-pyrazol-4-yl)-N-((3S,4S)-1-methyl-4-((4′-((4-methylpiperazin-1-yl)methyl)-[1,1′-biphenyl]-4-yl)methoxy)pyrrolidin-3-yl)-nicotinamide], the concentration for 50% growth inhibition (GI50) in assay [1] was 100 to 500 nM. Besides, the IC50 in assay [2] is under 10 nM.

Take `C[C@@H]1CN(Cc2ccc(-c3ccc(CO[C@H]4CCC[C@@H]4NC(=O)c4cc(-c5cnn(C)c5)cnc4N)c(F)c3)cc2)C[C@H](C)N1C` [Example 157, 2-amino-N-((1S,2S)-2-((3-fluoro-4′-((cis-3,4,5-trimethylpiperazin-1-yl)methyl)-[1,1′-biphenyl]-4-yl)methoxy)cyclopentyl)-5-(1-methyl-1H-pyrazol-4-yl)-nicotinamide]: the GI50 in assay [1] fell in the range of 100 to 500 nM. Also, the IC50 in assay [2] was under 10 nM.

With `C[C@H](c1ccc(-c2ccc(CO[C@H]3CCC[C@@H]3NC(=O)c3cc(-c4ccc(F)nc4)cnc3N)cc2)cc1)N1CCN(CCO)CC1` [Example 227, 6-amino-6′-fluoro-N-((1S,2S)-2-((4′-((R)-1-(4-(2-hydroxyethyl)-piperazin-1-yl)ethyl)-[1,1′-biphenyl]-4-yl)methoxy)cyclopentyl)-[3,3′-bipyridine]-5-carboxamide], the concentration for 50% growth inhibition (GI50) in assay [1] is under 100 nM. For the same compound, the IC50 in assay [2] is under 10 nM.

For `CN1CCC(Oc2ccc(-c3ccc(CO[C@H]4CCC[C@@H]4NC(=O)c4cc(-c5cnn(C)c5)cnc4N)cc3)cc2)CC1` [Example 247, 2-amino-5-(1-methyl-1H-pyrazol-4-yl)-N-((1S,2S)-2-((4′-((1-methylpiperidin-4-yl)oxy)-[1,1′-biphenyl]-4-yl)methoxy)cyclopentyl)nicotinamide], in assay [1], the 50% growth inhibitory concentration (GI50) was 100 to 500 nM. For the same compound, in assay [2], the IC50 was under 10 nM.

As to `COc1ccc(-c2cnc(N)c(C(=O)N[C@H]3CCC[C@@H]3OCc3ccc(-c4ccc(CN5CCN(C)CC5)cc4)cc3)c2)cc1` [Example 376], the GI50 in assay [1] was under 100 nM. The IC50 in assay [2] is under 10 nM.

Regarding `CN1CCN(Cc2ccc(-c3ccc(CO[C@H]4CCC[C@@H]4NC(=O)c4cc(-c5cnn(C)c5)cnc4N)cc3)cc2C(F)(F)F)CC1` [Example 197, 2-amino-5-(1-methyl-1H-pyrazol-4-yl)-N-((1S,2S)-2-((4′-((4-methylpiperazin-1-yl)methyl)-3′-(trifluoromethyl)-[1,1′-biphenyl]-4-yl)methoxy)-cyclopentyl)nicotinamide], the GI50 in assay [1] is under 100 nM. In addition, the 50% inhibitory concentration (IC50) in assay [2] was under 10 nM.

For the compound `CN1CCN(Cc2ccc(-c3ccc(CO[C@H]4CNC[C@@H]4NC(=O)c4cc(-c5cnn(C)c5)cnc4N)cc3)cc2C(F)(F)F)CC1` [Example 436, 2-amino-5-(1-methyl-1H-pyrazol-4-yl)-N-((3S,4S)-4-((4′-((4-methylpiperazin-1-yl)methyl)-3′-(trifluoromethyl)-[1,1′-biphenyl]-4-yl)methoxy)-pyrrolidin-3-yl)nicotinamide], the GI50 in assay [1] lay within 500 to 1000 nM. For the same compound, the half-maximal inhibitory concentration (IC50) in assay [2] is under 10 nM.

For `CCc1cc(CO[C@H]2CNC[C@@H]2NC(=O)c2cc(-c3ccc(N(C)C)cc3)cnc2N)ccc1C` [Example 405, 2-amino-5-(4-(dimethylamino)phenyl)-N-((3S,4S)-4-((3-ethyl-4-methylbenzyl)oxy)pyrrolidin-3-yl)nicotinamide], the GI50 in assay [1] fell in the range of 100 to 500 nM. Further, the half-maximal inhibitory concentration (IC50) in assay [2] was under 10 nM.

These data come from patent publication US10125118B2, “Heteroaryl compounds and their use as therapeutic drugs” (Dong-A Socio Holdings Co., Ltd., priority 2015, dated 2018).
